These are literature values, as cited in patent US12171873B2, “Devices and methods for delivery of substances to animals” (Ruminant Biotech Corp Limited, priority 2020, dated 2024).

For data set [1] the following is noted: in vivo.
The conditions of data set [2]: slaughtered steers, after 48 hour with holding period.

Turning to `BrC(Br)Br` [Bromoform, bromoform], the level in milk result in data set [1] is given as “no significant increase”. The “residues in meat and tissue” value in data set [2] is recorded as “no residues”.
